Patent US20090029995A1, “HETERO BIARYL DERIVATIVES AS MATRIX METALLOPROTEINASE INHIBITORS” (WARNER-LAMBERT COMPANY, priority 2002, published 2009)

How the values were obtained:
MMP-8 full-length = biological target: T1, MMP-8 full-length (Homo sapiens, UniProt P22894); assay: MMP-8 full-length inhibition (thiopeptolide substrate hydrolysis); type: biochemical; settings: read-out: MMP-8FL IC50
T1 construct: MMP-7 full-length, MMP-8 full-length, MMP-9 full-length
Source text: (§1) Certain compounds of Formula I have been assayed with MMP-1 full-length, MMP-3 catalytic domain, MMP-7 full-length, MMP-8 full-length, MMP-9 full-length, MMP-12 catalytic domain, MMP-14 catalytic domain, and MMP-17 catalytic domain.
(§2) The assays measure the amount by which a test compound reduces the hydrolysis of a thiopeptolide substrate catalyzed by a matrix metalloproteinase enzyme. Such assays are described in detail by Ye et al., in Biochemistry, 1992; 31(45): 11231-11235, which is incorporated herein by reference. One such assay is described below in Biological Method 1.
(§3) Thiopeptolide substrates show virtually no decomposition or hydrolysis at or below neutral pH in the absence of a matrix metalloproteinase enzyme. A typical thiopeptolide substrate commonly utilized for assays is Ac-Pro-Leu-Gly-thioester-Leu-Leu-Gly-OEt. A 100 μL assay mixture will contain 50 mM of N-2-hydroxyethylpiperazine-N′-2-ethanesulfonic acid buffer (“HEPES,” pH 7.0), 10 mM CaCl2, 100 μM thiopeptolide substrate, and 1 mM 5,5′-dithio-bis-(2-nitro-benzoic acid) (DTNB). The thiopeptolide substrate concentration may be varied, for example from 10 to 800 μM to obtain Km and Kcat values. The change in absorbance at 405 nm is monitored on a Thermo Max microplate reader (molecular Devices, Menlo Park, Calif.) at room temperature (22° C.). The calculation of the amount of hydrolysis of the thiopeptolide substrate is based on E412=13600 M^−1 cm^−1 for the DTNB-derived product 3-carboxy-4-nitrothiophenoxide. Assays are carried out with and without matrix metalloproteinase inhibitor compounds, and the amount of hydrolysis is compared for a determination of inhibitory activity of the test compounds.
(§4) Test compounds were evaluated at various concentrations in order to determine their respective IC50 values, the micromolar concentration of compound required to cause a 50% inhibition of catalytic activity of the respective enzyme.

MMP-7 full-length = biological target: T2, MMP-7 full-length (Homo sapiens, UniProt P09237); assay: MMP-7 full-length inhibition (thiopeptolide substrate hydrolysis); type: biochemical
T2 sequence (P09237 95-267): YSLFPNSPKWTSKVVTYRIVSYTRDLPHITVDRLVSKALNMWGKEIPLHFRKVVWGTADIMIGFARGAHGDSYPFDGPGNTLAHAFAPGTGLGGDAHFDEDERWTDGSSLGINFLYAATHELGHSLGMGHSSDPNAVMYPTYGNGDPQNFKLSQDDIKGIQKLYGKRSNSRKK
Source text: as §1, §2
(§5) Thiopeptolide substrates show virtually no decomposition or hydrolysis at or below neutral pH in the absence of a matrix metalloproteinase enzyme. A typical thiopeptolide substrate commonly utilized for assays is Ac-Pro-Leu-Gly-thioester-Leu-Leu-Gly-OEt. A 100 μL assay mixture will contain 50 mM of N-2-hydroxyethylpiperazine-N′-2-ethanesulfonic acid buffer (“HEPES,” pH 7.0), 10 mM CaCl2, 100 μM thiopeptolide substrate, and 1 mM 5,5′-dithio-bis-(2-nitro-benzoic acid) (DTNB). The thiopeptolide substrate concentration may be varied, for example from 10 to 800 μM to obtain Km and Kcat values. The change in absorbance at 405 nm is monitored on a Thermo Max microplate reader (molecular Devices, Menlo Park, Calif.) at room temperature (22° C.). The calculation of the amount of hydrolysis of the thiopeptolide substrate is based on E412=13600 M^−1 cm^−1 for the DTNB-derived product 3-carboxy-4-nitrothiophenoxide. […]
(§6) Some representative compounds of Formula I have been evaluated for their ability to inhibit MMP-13. Inhibitor activity versus other MMPs with the compounds may be determined using, for example, MMP-1FL, which refers to full length interstitial collagenase; MMP-2FL, which refers to full length Gelatinase A; MMP-3CD, which refers to the catalytic domain of stromelysin; MMP-7FL, which refers to full length matrilysin; MMP-9FL, which refers to full length Gelatinase B; MMP-13CD, which refers to the catalytic domain of collagenase 3; and MMP-14CD, which refers to the catalytic domain of MMP-14. […]

MMP-13 catalytic domain = biological target: T3, MMP-13 catalytic domain (Homo sapiens, UniProt P45452); assay: MMP-13 catalytic domain inhibition (thiopeptolide substrate hydrolysis); type: biochemical; settings: read-out: MMP-13CD IC50
T3 construct: use the catalytic domain of the MMP-13 enzyme, namely matrix metalloproteinase-13 catalytic domain (“MMP-13CD”)
Source text: The assays measure the amount by which a test compound reduces the hydrolysis of a thiopeptolide substrate catalyzed by a matrix metalloproteinase enzyme. […] One such assay is described below in Biological Method 1.
Some of the particular methods described below use the catalytic domain of the MMP-13 enzyme, namely matrix metalloproteinase-13 catalytic domain (“MMP-13CD”), rather than the corresponding full-length enzyme, MMP-13.
Thiopeptolide substrates show virtually no decomposition or hydrolysis at or below neutral pH in the absence of a matrix metalloproteinase enzyme. A typical thiopeptolide substrate commonly utilized for assays is Ac-Pro-Leu-Gly-thioester-Leu-Leu-Gly-OEt. […] Assays are carried out with and without matrix metalloproteinase inhibitor compounds, and the amount of hydrolysis is compared for a determination of inhibitory activity of the test compounds.

MMP-14 catalytic domain = MMP-14 catalytic domain (Homo sapiens, UniProt P50281); assay: MMP-14 catalytic domain inhibition (thiopeptolide substrate hydrolysis); type: biochemical; settings: read-out: MMP-14CD IC50
Source text: as §1, §2, §3, §4
(§7) The test described above for the inhibition of MMP-13 may also be adapted and used to determine the ability of the compounds of Formula I to inhibit the matrix metalloproteases MMP-1, MMP-2, MMP-3, MMP-7, MMP-9, MMP-12 and MMP-14.
as §6

MMP-9 full-length = MMP-9 full-length (Homo sapiens, UniProt P14780); assay: MMP-9 full-length inhibition (thiopeptolide substrate hydrolysis); type: biochemical; settings: read-out: MMP-9FL IC50
MMP-9 full-length, sequence (P14780 94-707): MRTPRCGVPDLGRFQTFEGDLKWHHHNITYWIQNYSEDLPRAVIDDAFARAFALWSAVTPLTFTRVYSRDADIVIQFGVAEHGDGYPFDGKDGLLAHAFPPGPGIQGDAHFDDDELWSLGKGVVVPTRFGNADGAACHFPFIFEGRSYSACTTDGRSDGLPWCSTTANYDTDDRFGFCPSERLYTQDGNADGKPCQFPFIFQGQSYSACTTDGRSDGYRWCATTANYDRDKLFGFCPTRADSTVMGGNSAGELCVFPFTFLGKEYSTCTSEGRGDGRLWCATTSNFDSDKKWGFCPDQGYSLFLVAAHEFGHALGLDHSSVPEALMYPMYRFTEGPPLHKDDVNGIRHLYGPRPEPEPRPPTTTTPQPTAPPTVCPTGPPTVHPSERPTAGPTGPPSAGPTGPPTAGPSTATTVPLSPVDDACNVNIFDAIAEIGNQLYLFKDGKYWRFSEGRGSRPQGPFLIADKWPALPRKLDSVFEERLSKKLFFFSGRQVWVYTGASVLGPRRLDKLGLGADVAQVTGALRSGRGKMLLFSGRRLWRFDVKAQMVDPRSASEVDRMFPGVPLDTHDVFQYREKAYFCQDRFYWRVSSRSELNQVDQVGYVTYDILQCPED
Source text: as §1, §2, §3, §4, §7, §6

MMP-17 catalytic domain = biological target: T4, MMP-17 catalytic domain (Homo sapiens, UniProt Q9ULZ9); assay: MMP-17 catalytic domain inhibition (thiopeptolide substrate hydrolysis); type: biochemical; settings: read-out: MMP-17CD IC50
T4 construct: MMP-12 catalytic domain, MMP-14 catalytic domain, and MMP-17 catalytic domain
T4 sequence (Q9ULZ9 126-295 limits assumed): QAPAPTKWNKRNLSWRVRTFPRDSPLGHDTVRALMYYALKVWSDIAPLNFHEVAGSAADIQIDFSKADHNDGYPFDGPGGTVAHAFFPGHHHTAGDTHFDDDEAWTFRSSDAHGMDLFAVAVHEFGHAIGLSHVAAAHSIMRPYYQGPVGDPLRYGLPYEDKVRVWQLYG
Source text: as §1, §2, §3, §4

MMP-3 catalytic domain = MMP-3 catalytic domain (Homo sapiens, UniProt P08254); assay: MMP-3 catalytic domain inhibition (thiopeptolide substrate hydrolysis, MES buffer pH 6.0); type: biochemical; settings: read-out: MMP-3CD IC50
MMP-3 catalytic domain, sequence (P08254 100-272 limits assumed): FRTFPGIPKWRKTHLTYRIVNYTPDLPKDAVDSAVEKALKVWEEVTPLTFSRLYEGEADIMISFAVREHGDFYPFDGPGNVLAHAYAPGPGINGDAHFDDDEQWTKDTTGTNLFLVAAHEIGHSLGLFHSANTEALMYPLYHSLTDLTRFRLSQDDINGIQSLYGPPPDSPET
Source text: as §1, §2, §3, §4
It should be appreciated that the assay buffer used with MMP-3CD was 50 mM N-morpholinoethane sulfonate (“MES”) at pH 6.0 rather than the HEPES buffer at pH 7.0 described above. […]
as §6

MMP-1 full-length = biological target: T5, MMP-1 full-length (Homo sapiens, UniProt P03956); assay: MMP-1 full-length inhibition (thiopeptolide substrate hydrolysis); type: biochemical; settings: read-out: MMP-1FL IC50
T5 sequence (P03956 100-469): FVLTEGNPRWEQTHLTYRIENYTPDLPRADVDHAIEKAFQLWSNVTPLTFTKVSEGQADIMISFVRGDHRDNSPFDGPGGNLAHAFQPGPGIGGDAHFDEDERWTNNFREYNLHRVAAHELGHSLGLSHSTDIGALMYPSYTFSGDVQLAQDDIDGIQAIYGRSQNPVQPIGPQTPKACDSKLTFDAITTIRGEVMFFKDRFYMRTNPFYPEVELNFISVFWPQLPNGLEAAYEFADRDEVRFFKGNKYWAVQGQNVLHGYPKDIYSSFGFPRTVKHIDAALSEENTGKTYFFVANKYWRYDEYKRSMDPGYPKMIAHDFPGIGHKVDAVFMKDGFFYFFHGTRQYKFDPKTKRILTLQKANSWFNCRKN
Source text: as §1, §2, §5, §6

MMP-12 catalytic domain = biological target: T6, MMP-12 catalytic domain (Homo sapiens, UniProt P39900); assay: MMP-12 catalytic domain inhibition (thiopeptolide substrate hydrolysis); type: biochemical; settings: read-out: MMP-12CD IC50
T6 construct: MMP-12 catalytic domain, MMP-14 catalytic domain, and MMP-17 catalytic domain
T6 sequence (P39900 106-263 limits assumed): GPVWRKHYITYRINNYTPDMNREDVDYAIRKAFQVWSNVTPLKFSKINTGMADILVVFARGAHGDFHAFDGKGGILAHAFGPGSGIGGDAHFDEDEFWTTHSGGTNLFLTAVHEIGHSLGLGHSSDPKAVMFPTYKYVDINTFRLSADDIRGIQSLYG
Source text: as §1, §2
Thiopeptolide substrates show virtually no decomposition or hydrolysis at or below neutral pH in the absence of a matrix metalloproteinase enzyme. A typical thiopeptolide substrate commonly utilized for assays is Ac-Pro-Leu-Gly-thioester-Leu-Leu-Gly-OEt. A 100 μL assay mixture will contain 50 mM of N-2-hydroxyethylpiperazine-N′-2-ethanesulfonic acid buffer (“HEPES,” pH 7.0), 10 mM CaCl2, 100 μM thiopeptolide substrate, and 1 mM 5,5′-dithio-bis-(2-nitro-benzoic acid) (DTNB). The thiopeptolide substrate concentration may be varied, for example from 10 to 800 μM to obtain Km and Kcat values. The change in absorbance at 405 nm is monitored on a Thermo Max microplate reader (molecular Devices, Menlo Park, Calif.) at room temperature (22° C.). […]

T1 sequence (P22894 101-467): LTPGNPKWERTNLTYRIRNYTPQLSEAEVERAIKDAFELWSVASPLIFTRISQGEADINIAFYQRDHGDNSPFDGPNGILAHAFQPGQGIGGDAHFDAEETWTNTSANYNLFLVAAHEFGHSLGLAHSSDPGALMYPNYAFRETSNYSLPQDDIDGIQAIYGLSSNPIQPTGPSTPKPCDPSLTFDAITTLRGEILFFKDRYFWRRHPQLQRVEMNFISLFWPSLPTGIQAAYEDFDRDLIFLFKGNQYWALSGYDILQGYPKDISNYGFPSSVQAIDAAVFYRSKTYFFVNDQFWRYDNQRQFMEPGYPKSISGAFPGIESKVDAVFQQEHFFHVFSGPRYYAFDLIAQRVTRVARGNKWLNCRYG

| IC50 (MMP-8 full-length) | IC50 (MMP-7 full-length) | IC50 (MMP-13 catalytic domain) | IC50 (MMP-14 catalytic domain) | IC50 (MMP-9 full-length) | IC50 (MMP-17 catalytic domain) | IC50 (MMP-3 catalytic domain) | IC50 (MMP-1 full-length) | melting point | IC50 (MMP-12 catalytic domain) | SMILES |
| --- | --- | --- | --- | --- | --- | --- | --- | --- | --- | --- |
| > 100 µM | 7.9 µM | 0.0011 µM | 27 µM | > 30 µM | > 100 µM | 100 µM | > 30 µM | – | – | O=C(O)c1ccc(Cc2nnc(-c3cccc(C#CCc4ccc(F)cc4)c3)s2)cc1 [Example C2, 4-(5-{3-[3-(4-Fluoro-phenyl)-prop-1-ynyl]-phenyl}-[1,3,4]thiadiazol-2-ylmethyl)-benzoic acid] |
| > 100 µM | – | 0.0015 µM | > 30 µM | > 100 µM | 30 µM | 4.7 µM | – | 210 to 212 °C | 18 µM | O=C(O)c1ccc(Cn2nnc(-c3cccc(C#CCc4ccc(F)cc4)c3)n2)cc1 [Example C4, 4-(5-{3-[3-(4-Fluoro-phenyl)-prop-1-ynyl]-phenyl}-tetrazol-2-ylmethyl)-benzoic acid] |
| > 100 µM | > 100 µM | 0.0017 µM | > 100 µM | > 100 µM | – | 100 µM | > 100 µM | 193 to 194 °C | – | O=C(O)c1ccc(Cn2nnc(-c3ccnc(C(=O)NCc4ccc(F)cc4)c3)n2)cc1 [Example F12, 4-{5-[2-(4-Fluoro-benzylcarbamoyl)-pyridin-4-yl]-tetrazol-2-ylmethyl}-benzoic acid] |
| > 100 µM | > 30 µM | 0.0027 µM | > 30 µM | > 30 µM | > 100 µM | 4.3 µM | > 100 µM | – | – | COc1ccc(CC#Cc2cncc(-c3nnn(Cc4ccc(C(=O)O)cc4)n3)c2)cc1 [Example H4, 4-(5-{5-[3-(4-Methoxy-phenyl)-prop-1-ynyl]-pyridin-3-yl}-tetrazol-2-ylmethyl)-benzoic acid] |
